IC50 data for 13 compounds are collected here from US20250145665A1, “MACROCYCLIC PEPTIDES USEFUL AS MODULATORS OF TNF ALPHA” (Bristol-Myers Squibb Company, priority 2023, published 2025).

Starred links: 1 amine or outer side, 2 acyl side, 3 side chain; linkers in the order of their positions; H or OH if unused. Positions of bridges follow the written chain, without caps; N, C: chain ends. Non-standard residues stand in square brackets, D forms with d. Residues, ends and D or L forms follow the SMILES beside them. ξ: configuration not given here. *: point of attachment. X56 = O=C(O)COc1cccc(NC(=O)c2ccc(-c3ccc(C[C@H](N[*:1])C(=O)[*:2])cc3)cc2)c1; Bip(4'-NH) = O=C([C@H](Cc1ccc(-c2ccc(N[*:3])cc2)cc1)N[*:1])[*:2]; X45 = CS(=O)(=O)Nc1ccc(CNC(=N)NCCC[C@@H](N[*:1])C(=O)[*:2])cc1; Bip(4'-CONHMe) = CNC(=O)c1ccc(-c2ccc(C[C@H](N)C(=O)O)cc2)cc1; dArg(ω-Bn(3-CH2OH)) = N=C(NCCC[C@@H](N)C(=O)O)NCc1cccc(CO)c1; Indazole3carbonyl(1-CH2COOH) = O=C(O)Cn1nc(C(=O)*)c2ccccc21; Bip(4'-COOH) = N[C@@H](Cc1ccc(-c2ccc(C(=O)O)cc2)cc1)C(=O)O; X29 = N=C(NCCC[C@@H](N[*:1])C(=O)[*:2])NCCc1ccc(F)c(F)c1; Trp(1-CH2COOH) = N[C@@H](Cc1cn(CC(=O)O)c2ccccc12)C(=O)O; X30 = N#Cc1ccc(CCNC(=N)NCCC[C@@H](N[*:1])C(=O)[*:2])cc1; X8 = N=C(NCCC[C@@H](N[*:1])C(=O)[*:2])NCCc1ccc(CN)cc1; Ala(imidazol-2-yl) = N[C@@H](Cc1ncc[nH]1)C(=O)O; Ala(morpholin-4-yl) = N[C@@H](CN1CCOCC1)C(=O)O; Benzoyl(3-OCH2COOH) = O=C(O)COc1cccc(C(=O)*)c1; X88 = CC(=O)N[C@@H](Cc1ccc(OCC(=O)O)cc1)C(=O)*; Bip = N[C@@H](Cc1ccc(-c2ccccc2)cc1)C(=O)O; X81 = N[C@@H](Cc1ccc(OCC(=O)O)cc1)C(=O)*; X60 = O=C(c1ccc2c(c1)CCc1ccccc1-2)*; X61 = O=C(c1ccc2c(c1)Cc1ccccc1-2)*; Cha = N[C@@H](CC1CCCCC1)C(=O)O; Tle = CC(C)(C)[C@H](N)C(=O)O; ξP = O=C(O)C1CCCN1; Sar = CNCC(=O)O

Chain of TNFα (P01375 77-233 limits assumed): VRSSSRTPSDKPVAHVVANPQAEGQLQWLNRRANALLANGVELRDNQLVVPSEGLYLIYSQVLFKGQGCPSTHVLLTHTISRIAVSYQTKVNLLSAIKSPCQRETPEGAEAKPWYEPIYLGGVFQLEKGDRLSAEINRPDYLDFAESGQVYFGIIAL

The first experiment has as its target TNFα (Homo sapiens, UniProt P01375). Put plainly: TNF-Induced HEK-Blue Assay. It is filed as cell-based.
Details: not given
Turning to `CC(C)C[C@@H]1NC(=O)[C@H](CCCNC(=N)N)NC(=O)[C@H](C(C)C)NC(=O)[C@@H]2CCCN2C(=O)[C@H](C(C)C)NC(=O)[C@@H](CCCNC(=N)NCCc2ccc(F)c(F)c2)NC(=O)[C@H](CC(=O)O)NC(=O)[C@@H]2CCCN2C(=O)CN(C)C(=O)[C@H](Cc2ccc(-c3ccc(NC(=O)c4nn(CC(=O)O)c5ccccc45)cc3)cc2)NC(=O)[C@H](Cc2ccc(-c3ccccc3)cc2)NC(=O)[C@H](CN2CCOCC2)NC(=O)CSC[C@@H](C(=O)NCC(N)=O)NC1=O` [Example 423] ({CH2CO}-[Ala(morpholin-4-yl)][Bip][Bip(4'-NH)](Indazole3carbonyl(1-CH2COOH))[Sar]PD[X29]VPVRLCG-NH2; thioether N-13), the IC50 was less than 50 nM.
`CNC(=O)c1ccc(-c2ccc(C[C@@H]3NC(=O)[C@H](CN4CCOCC4)NC(=O)CSC[C@@H](C(=O)NCC(N)=O)NC(=O)[C@H](CC(C)C)NC(=O)[C@H](CCCNC(=N)N)NC(=O)[C@H](C(C)C)NC(=O)[C@@H]4CCCN4C(=O)[C@H](C(C)C)NC(=O)[C@@H](CCCNC(=N)NCCc4ccc(F)c(F)c4)NC(=O)[C@H](CC(=O)O)NC(=O)[C@@H]4CCCN4C(=O)CN(C)C(=O)[C@H](Cc4ccc(-c5ccc(NC(=O)c6nn(CC(=O)O)c7ccccc67)cc5)cc4)NC3=O)cc2)cc1` [Example 424] ({CH2CO}-[Ala(morpholin-4-yl)][Bip(4'-CONHMe)][Bip(4'-NH)](Indazole3carbonyl(1-CH2COOH))[Sar]PD[X29]VPVRLCG-NH2; thioether N-13) came in with a half-maximal inhibitory concentration (IC50) of 50 to 200 nM.
On the same count and under the same terms, next, `CC(C)C[C@@H]1NC(=O)[C@H](CCCNC(=N)N)NC(=O)[C@H](C(C)C)NC(=O)[C@@H]2CCCN2C(=O)[C@H](C(C)C)NC(=O)[C@@H](CCCNC(=N)NCc2cccc(CO)c2)NC(=O)[C@H](CC(=O)O)NC(=O)[C@@H]2CCCN2C(=O)CN(C)C(=O)[C@H](Cc2ccc(-c3ccc(NC(=O)c4nn(CC(=O)O)c5ccccc45)cc3)cc2)NC(=O)[C@H](Cc2ccc(-c3ccccc3)cc2)NC(=O)[C@H](CN2CCOCC2)NC(=O)CSC[C@@H](C(=O)NCC(N)=O)NC1=O` [Example 425] ({CH2CO}-[Ala(morpholin-4-yl)][Bip][Bip(4'-NH)](Indazole3carbonyl(1-CH2COOH))[Sar]PD[dArg(ω-Bn(3-CH2OH))]VPVRLCG-NH2; thioether N-13): less than 50 nM.
The same measure, in the same setting: next, `CNC(=O)c1ccc(-c2ccc(C[C@@H]3NC(=O)[C@H](CN4CCOCC4)NC(=O)CSC[C@@H](C(=O)NCC(N)=O)NC(=O)[C@H](CC(C)C)NC(=O)[C@H](CCCNC(=N)N)NC(=O)[C@H](C(C)C)NC(=O)[C@@H]4CCCN4C(=O)[C@H](C(C)C)NC(=O)[C@@H](CCCNC(=N)NCc4cccc(CO)c4)NC(=O)[C@H](CC(=O)O)NC(=O)[C@@H]4CCCN4C(=O)CN(C)C(=O)[C@H](Cc4ccc(-c5ccc(NC(=O)c6nn(CC(=O)O)c7ccccc67)cc5)cc4)NC3=O)cc2)cc1` [Example 426] ({CH2CO}-[Ala(morpholin-4-yl)][Bip(4'-CONHMe)][Bip(4'-NH)](Indazole3carbonyl(1-CH2COOH))[Sar]PD[dArg(ω-Bn(3-CH2OH))]VPVRLCG-NH2; thioether N-13): less than 50 nM; `CC(C)C[C@@H]1NC(=O)[C@H](CCCNC(=N)N)NC(=O)[C@H](C(C)C)NC(=O)[C@@H]2CCCN2C(=O)[C@H](C(C)C)NC(=O)[C@@H](CCCNC(=N)NCc2ccc(NS(C)(=O)=O)cc2)NC(=O)[C@H](CC(=O)O)NC(=O)[C@@H]2CCCN2C(=O)CN(C)C(=O)[C@H](Cc2ccc(-c3ccc(NC(=O)c4nn(CC(=O)O)c5ccccc45)cc3)cc2)NC(=O)[C@H](Cc2ccc(-c3ccccc3)cc2)NC(=O)[C@H](CN2CCOCC2)NC(=O)CSC[C@@H](C(=O)NCC(N)=O)NC1=O` [Example 427] ({CH2CO}-[Ala(morpholin-4-yl)][Bip][Bip(4'-NH)](Indazole3carbonyl(1-CH2COOH))[Sar]PD[X45]VPVRLCG-NH2; thioether N-13): 50 to 200 nM; `CC(C)C[C@@H]1NC(=O)[C@H](CCCNC(=N)N)NC(=O)[C@H](C(C)C)NC(=O)[C@@H]2CCCN2C(=O)[C@H](C(C)C)NC(=O)[C@@H](CCCNC(=N)NCCc2ccc(C#N)cc2)NC(=O)[C@H](CC(=O)O)NC(=O)[C@@H]2CCCN2C(=O)CN(C)C(=O)[C@H](Cc2ccc(-c3ccc(NC(=O)c4nn(CC(=O)O)c5ccccc45)cc3)cc2)NC(=O)[C@H](Cc2ccc(-c3ccccc3)cc2)NC(=O)[C@H](CN2CCOCC2)NC(=O)CSC[C@@H](C(=O)NCC(N)=O)NC1=O` [Example 428] ({CH2CO}-[Ala(morpholin-4-yl)][Bip][Bip(4'-NH)](Indazole3carbonyl(1-CH2COOH))[Sar]PD[X30]VPVRLCG-NH2; thioether N-13): 50 to 200 nM.
`CC(C)C[C@@H]1NC(=O)[C@H](CCCNC(=N)N)NC(=O)[C@H](C(C)C)NC(=O)[C@@H]2CCCN2C(=O)[C@H](C(C)C)NC(=O)[C@@H](CCCNC(=N)NCCc2ccc(CN)cc2)NC(=O)[C@H](CC(=O)O)NC(=O)[C@@H]2CCCN2C(=O)CN(C)C(=O)[C@H](Cc2ccc(-c3ccc(NC(=O)c4nn(CC(=O)O)c5ccccc45)cc3)cc2)NC(=O)[C@H](Cc2ccc(-c3ccccc3)cc2)NC(=O)[C@H](CN2CCOCC2)NC(=O)CSC[C@@H](C(=O)NCC(N)=O)NC1=O` [Example 429] ({CH2CO}-[Ala(morpholin-4-yl)][Bip][Bip(4'-NH)](Indazole3carbonyl(1-CH2COOH))[Sar]PD[X8]VPVRLCG-NH2; thioether N-13) gave a concentration for half-maximal inhibition (IC50) of 200 to 2000 nM.

The experiment is the same for the next values; noted with them: HEK-Blue-CD40L cells, NF-kB-driven secreted alkaline phosphatase reporter; TNFα 0.5 ng/ml; 18 h; read-out: TNF induced HEK-Blue assay IC50 value.
For `CC[C@H](C)[C@@H]1NC(=O)[C@@H]2CCCN2C(=O)[C@H]([C@@H](C)CC)NC(=O)[C@@H](CCCNC(=N)N)NC(=O)[C@H](CC(=O)O)NC(=O)[C@H](Cc2ccccc2)NC(=O)CN(C)C(=O)[C@H](Cc2ccc(-c3ccc(NC(=O)[C@H](Cc4ccc(OCC(=O)O)cc4)NC(C)=O)cc3)cc2)NC(=O)[C@H](Cc2ccc(-c3ccc(C(=O)O)cc3)cc2)NC(=O)[C@H](C(C)(C)C)NC(=O)CSC[C@@H](C(=O)NCC(N)=O)NC(=O)[C@H](CC(C)C)NC(=O)[C@H](Cc2ncc[nH]2)NC1=O` [Example 417] ({CH2CO}-[Tle][Bip(4'-COOH)][Bip(4'-NH)](X88)[Sar]FD[dR]IPI[Ala(imidazol-2-yl)]LCG-NH2; thioether N-13), the IC50 is less than 50 nM.
The same measure, in the same setting: next, `CC[C@H](C)[C@@H]1NC(=O)[C@@H]2CCCN2C(=O)[C@H]([C@@H](C)CC)NC(=O)[C@@H](CCCNC(=N)N)NC(=O)[C@H](CC(=O)O)NC(=O)[C@H](Cc2ccccc2)NC(=O)CN(C)C(=O)[C@H](Cc2ccc(-c3ccc(NC(=O)c4ccc5c(c4)Cc4ccccc4-5)cc3)cc2)NC(=O)[C@H](Cc2ccc(-c3ccc(C(=O)O)cc3)cc2)NC(=O)[C@H](C(C)(C)C)NC(=O)CSC[C@@H](C(=O)NCC(N)=O)NC(=O)[C@H](CC(C)C)NC(=O)[C@H](Cc2cnc[nH]2)NC1=O` [Example 418] ({CH2CO}-[Tle][Bip(4'-COOH)][Bip(4'-NH)](X61)[Sar]FD[dR]IPIHLCG-NH2; thioether N-13): 50 to 200 nM; `CC[C@H](C)[C@@H]1NC(=O)C2CCCN2C(=O)[C@H]([C@@H](C)CC)NC(=O)[C@@H](CCCNC(=N)N)NC(=O)[C@H](CC(=O)O)NC(=O)[C@H](Cc2ccccc2)NC(=O)CN(C)C(=O)[C@H](Cc2ccc(-c3ccc(NC(=O)c4ccc5c(c4)CCc4ccccc4-5)cc3)cc2)NC(=O)[C@H](Cc2ccc(-c3ccc(C(=O)O)cc3)cc2)NC(=O)[C@H](C(C)(C)C)NC(=O)CSC[C@@H](C(=O)NCC(N)=O)NC(=O)[C@H](CC(C)C)NC(=O)[C@H](Cc2ncc[nH]2)NC1=O` (stereo partly shown) [Example 419] ({CH2CO}-[Tle][Bip(4'-COOH)][Bip(4'-NH)](X60)[Sar]FD[dR]I[ξP]I[Ala(imidazol-2-yl)]LCG-NH2; thioether N-13): 200 to 2000 nM.
Consider `CC[C@H](C)[C@@H]1NC(=O)[C@@H](CCCNC(=N)N)NC(=O)[C@H](CC(=O)O)NC(=O)[C@H](Cc2cnc[nH]2)NC(=O)CN(C)C(=O)[C@H](Cc2ccc(-c3ccc(NC(=O)[C@@H](N)Cc4cn(CC(=O)O)c5ccccc45)cc3)cc2)NC(=O)[C@H](Cc2ccc(-c3ccccc3)cc2)NC(=O)[C@H](CC2CCCCC2)NC(=O)CSC[C@@H](C(=O)NCC(N)=O)NC(=O)[C@H](CC(C)C)NC(=O)[C@H](Cc2ncc[nH]2)NC(=O)[C@H](C(C)C)NC(=O)C2CCCN2C1=O` (stereo partly shown) [Example 420] ({CH2CO}-[Cha][Bip][Bip(4'-NH)](Trp(1-CH2COOH))[Sar]HD[dR]I[ξP]V[Ala(imidazol-2-yl)]LCG-NH2; thioether N-13), for which the IC50 fell in the range of 50 to 200 nM.
Regarding `CC[C@H](C)[C@@H]1NC(=O)C2CCCN2C(=O)[C@H]([C@@H](C)CC)NC(=O)[C@@H](CCCNC(=N)N)NC(=O)[C@H](CC(=O)O)NC(=O)[C@H](Cc2ccccc2)NC(=O)CN(C)C(=O)[C@H](Cc2ccc(-c3ccc(NC(=O)[C@@H](N)Cc4ccc(OCC(=O)O)cc4)cc3)cc2)NC(=O)[C@H](Cc2ccc(-c3ccc(C(=O)O)cc3)cc2)NC(=O)[C@H](C(C)(C)C)NC(=O)CSC[C@@H](C(=O)NCC(N)=O)NC(=O)[C@H](CC(C)C)NC(=O)[C@H](Cc2ncc[nH]2)NC1=O` (stereo partly shown) [Example 421] ({CH2CO}-[Tle][Bip(4'-COOH)][Bip(4'-NH)](X81)[Sar]FD[dR]I[ξP]I[Ala(imidazol-2-yl)]LCG-NH2; thioether N-13), the half-inhibitory concentration (IC50) is 50 to 200 nM.
Same read-out and setting: next, `CC[C@H](C)[C@@H]1NC(=O)[C@@H](CCCNC(=N)N)NC(=O)[C@H](CC(=O)O)NC(=O)[C@H](Cc2cnc[nH]2)NC(=O)CN(C)C(=O)[C@H](Cc2ccc(-c3ccc(NC(=O)c4cccc(OCC(=O)O)c4)cc3)cc2)NC(=O)[C@H](Cc2ccc(-c3ccc(C(=O)Nc4cccc(OCC(=O)O)c4)cc3)cc2)NC(=O)[C@H](CC2CCCCC2)NC(=O)CSC[C@@H](C(=O)NCC(N)=O)NC(=O)[C@H](CC(C)C)NC(=O)[C@H](Cc2ncc[nH]2)NC(=O)[C@H](C(C)C)NC(=O)C2CCCN2C1=O` (stereo partly shown) [Example 422] ({CH2CO}-[Cha][X56][Bip(4'-NH)](Benzoyl(3-OCH2COOH))[Sar]HD[dR]I[ξP]V[Ala(imidazol-2-yl)]LCG-NH2; thioether N-13): less than 50 nM.

One may read the IC50 as the concentration needed to halve the response being measured.
